Counter-ions that a name gives are not always drawn.
Legend:
[1] = tested on: Jurkat cells; test: Inhibition of proliferation of Jurkat cells (CellTiter-Glo, 72 hour); assay type: cell-based, human; details: 10 μM to 316 pM
Protocol: Jurkat cells are a cell line established from a human T cell leukemia. Representative compounds of the invention were tested at different concentrations (from 10 μM to 316 pM; 0.5 log serial dilutions) for their ability to inhibit the proliferation of Jurkat cells. Known CDK inhibitors flavopiridol and triptolide were used as positive controls. Cells were grown in RPMI 1640+10% FBS+1% Glutamax. The cells were supplemented with FBS (Life Technologies) and 100 U·mL^− penicillin, 100 μg·mL^− streptomycin (Invitrogen) and cultured at 37° C. in a humidified chamber in the presence of 5% CO2. Proliferation assays were conducted over a 72 hour time period. CellTiter-Glo® (Promega Corporation, Madison, Wis. USA) was used to assess the anti-proliferative effects of the compounds following manufacturer's directions and utilizing the reagents supplied with the CellTiter-Glo® kit. In this table, “A” represents an IC50 of less than 500 nM; “B” an IC50 of between 500 nM and 5 μM; and “C” an IC50 of greater than 5 μM.

[2] = molecular target: T1, CDK7 (Homo sapiens, UniProt P50613); test: CDK7 kinase activity, Adapta kinase assay (Life Technologies); assay type: biochemical; details: Adapta kinase assay at Life Technologies; 10 μM down to 0.514 nM, 3-fold serial dilutions; read-out: CDK7 Inhibition (IC50)
T1 construct: purchased Life Technologies (Adapta kinase assay service)
T1 sequence (P50613 whole entry): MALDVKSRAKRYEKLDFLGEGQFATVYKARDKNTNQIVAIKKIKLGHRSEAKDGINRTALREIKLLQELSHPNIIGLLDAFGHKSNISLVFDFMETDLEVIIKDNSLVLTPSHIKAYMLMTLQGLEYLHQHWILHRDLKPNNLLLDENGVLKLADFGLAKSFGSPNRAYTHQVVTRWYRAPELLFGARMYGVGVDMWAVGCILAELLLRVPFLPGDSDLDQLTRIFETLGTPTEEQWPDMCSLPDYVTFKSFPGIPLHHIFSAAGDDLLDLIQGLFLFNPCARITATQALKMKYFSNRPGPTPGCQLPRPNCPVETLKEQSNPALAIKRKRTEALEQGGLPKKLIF
T1 sequence (P51946 whole entry partner): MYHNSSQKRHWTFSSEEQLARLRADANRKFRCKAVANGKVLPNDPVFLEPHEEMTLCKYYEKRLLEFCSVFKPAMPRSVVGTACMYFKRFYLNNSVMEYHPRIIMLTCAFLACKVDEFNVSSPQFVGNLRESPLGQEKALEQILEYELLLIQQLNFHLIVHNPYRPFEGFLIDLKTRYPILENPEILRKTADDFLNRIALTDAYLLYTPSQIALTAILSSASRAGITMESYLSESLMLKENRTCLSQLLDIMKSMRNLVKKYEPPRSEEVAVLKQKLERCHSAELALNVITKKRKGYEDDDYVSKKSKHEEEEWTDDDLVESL
T1 sequence (P51948 whole entry partner): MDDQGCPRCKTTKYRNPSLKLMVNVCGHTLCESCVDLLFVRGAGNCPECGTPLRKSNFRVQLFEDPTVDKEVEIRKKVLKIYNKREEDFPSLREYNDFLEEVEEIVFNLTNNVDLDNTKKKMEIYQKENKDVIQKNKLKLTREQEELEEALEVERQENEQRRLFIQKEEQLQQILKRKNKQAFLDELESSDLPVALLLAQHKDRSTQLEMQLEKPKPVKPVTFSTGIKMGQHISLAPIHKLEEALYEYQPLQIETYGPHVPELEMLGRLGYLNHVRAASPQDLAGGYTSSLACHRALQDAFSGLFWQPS
Protocol: Compounds of the invention were assayed for CDK7 activity at Life Technologies™ (Grand Island, N.Y.) using their commercially available Adapta® kinase assay services. Compounds were tested at concentrations ranging from 10 μM down to 0.514 nM in a series of 3-fold serial dilutions. Details of these assays, including substrates used, are available on the Life Technologies web site (http://www.lifetechnologies.com/us/en/home/life-science/drug-discovery/target-and-lead-identification-and-validation/kinasebiology/kinase-activity-assays.html).

[3] = tested on: A673 cells; test: Inhibition of proliferation of A673 cells (CyQUANT, 72 hour); assay type: cell-based, human; details: Homo sapiens, 72 hour proliferation
Protocol: A673 cells are a cell line derived from human muscle Ewing's sarcoma. Representative compounds of the invention were tested at different concentrations (from 4 μM to 126.4 pM; 0.5 log serial dilutions) for their ability to inhibit the proliferation of A673 cells. Known CDK inhibitors flavopiridol and triptolide were used as positive controls. Cells were grown in Dulbecco's Modified Eagle's Medium, +10% FBS+1 mM Sodium Pyruvate. The cells were cultured at 37° C. in a humidified chamber in the presence of 5% CO2. Proliferation assays were conducted over a 72 hour time period. CyQUANT® (Life Technologies, Chicago, Ill. USA) was used to assess the anti-proliferative effects of the compounds following manufacturer's directions and utilizing the reagents supplied with the CyQUANT® kit. In this table, “A” represents an IC50 of less than 500 nM; “B” an IC50 of between 500 nM and 5 μM; and “C” an IC50 of greater than 5 μM.

Row | SMILES | IC50 [2] [nM] | IC50 ([1]; Homo sapiens) [nM] | other results
1 | C=CC(=O)N1CCCC(CN(C(=O)C=C)[C@H]2CC[C@@H](Nc3ncc(Cl)c(-c4c[nH]c5ccccc45)n3)CC2)C1 (single isomer, unassigned) [191-2] | > 1000 | – | IC50 [1]: > 5000 nM
2 | C=CC(=O)N(C)[C@H]1CCC[C@@H](Nc2ncc(Cl)c(-c3c[nH]c4ccccc34)n2)C1 [Compound 171, N-((1S,3R)-3-(5-chloro-4-(1H-indol-3-yl)pyrimidin-2-ylamino)cyclohexyl)-N-methylacrylamide] | < 100 | < 500 | –
3 | CN(C)C/C=C/C(=O)N1CC[C@@H](Nc2ncc(Cl)c(-c3c[nH]c4ccccc34)n2)C1 [Compound 176] | < 100 | – | IC50 [1]: 500 to 5000 nM
4 | Nc1ccc(C(=O)N[C@H]2CCC[C@@H](Nc3ncc(Cl)c(-c4c[nH]c5ccccc45)n3)C2)nn1 [Compound 1027, 6-amino-N-((1S,3R)-3-(5-chloro-4-(1H-indol-3-yl)pyrimidin-2-ylamino)cyclohexyl)pyridazine-3-carboxamide] | – | 500 to 5000 | –
5 | C=CC(=O)NC12CC(C(=O)Nc3cccc(Nc4ncc(Cl)c(-c5c[nH]c6ccccc56)n4)c3)(C1)C2 (racemic) [Compound 108, N-(3-{[5-chloro-4-(1H-indol-3-yl)pyrimidin-2-yl]amino}phenyl)-3-(prop-2-enamido)bicyclo[1.1.1]pentane-1-carboxamide] | > 1000 | – | –
6 | C=CC(=O)N1CCN(C[C@H]2CCC[C@@H](Nc3ncc(Cl)c(-c4c[nH]c5ccccc45)n3)C2)CC1 [Compound 129, 1-(4-(((1S,3R)-3-((5-chloro-4-(1H-indol-3-yl)pyrimidin-2-yl)amino)cyclohexyl)methyl)piperazin-1-yl)prop-2-en-1-One] | < 100 | – | IC50 [3]: < 500 nM
7 | Nc1ccc(C(=O)Nc2cccc(Nc3ncc(Cl)c(-c4c[nH]c5ccccc45)n3)c2)cn1 [Compound 1024, 6-amino-N-(3-(5-chloro-4-(1H-indol-3-yl)pyrimidin-2-ylamino)phenyl)nicotinamide] | – | 500 to 5000 | –
8 | N#Cc1cnc(N[C@@H]2CCC[C@H](NC(=O)c3ccc(N)cn3)C2)nc1-c1c[nH]c2ccccc12 [Compound 1009, 5-amino-N-((1S,3R)-3-(5-cyano-4-(1H-indol-3-yl)pyrimidin-2-ylamino)cyclohexyl)picolinamide] | < 100 | – | –
9 | NCC(F)(F)C(=O)N[C@H]1CCC[C@@H](Nc2ncc(Cl)c(-c3c[nH]c4ccccc34)n2)C1 [Compound 1010, 3-amino-N-((1S,3R)-3-(5-chloro-4-(1H-indol-3-yl)pyrimidin-2-ylamino)cyclohexyl)-2,2-difluoropropanamide] | < 100 | – | –
10 | Nc1ccc(C(=O)N[C@H]2CCC[C@@H](Nc3ncc(Cl)c(-c4c[nH]c5ccccc45)n3)C2)cn1 [Compound 1025, 6-amino-N-((1S,3R)-3-(5-chloro-4-(1H-indol-3-yl)pyrimidin-2-ylamino)cyclohexyl)nicotinamide] | – | 500 to 5000 | –
11 | NCCc1cc2ccc(Nc3ncc(Cl)c(-c4c[nH]c5ccccc45)n3)cc2[nH]1 [Compound 1028, 2-(2-aminoethyl)-N-(5-chloro-4-(1H-indol-3-yl)pyrimidin-2-yl)-1H-indol-6-amine.HCl] | – | 500 to 5000 | –
12 | CN(C)CCCC(=O)NCCc1cc2ccc(Nc3ncc(Cl)c(-c4c[nH]c5ccccc45)n3)cc2[nH]1 [Compound 1029, N-(2-(6-(5-chloro-4-(1H-indol-3-yl)pyrimidin-2-ylamino)-1H-indol-2-yl)ethyl)-4-(dimethylamino)butanamide] | – | 500 to 5000 | –
13 | Nc1nc(C(=O)N[C@H]2CCC[C@@H](Nc3ncc(Cl)c(-c4c[nH]c5ccccc45)n3)C2)cs1 [Compound 1026, 2-amino-N-((1S,3R)-3-(5-chloro-4-(1H-indol-3-yl)pyrimidin-2-ylamino)cyclohexyl)thiazole-4-carboxamide] | – | 500 to 5000 | –
14 | CN(C)CCCC(=O)Nc1ccc(C(=O)Nc2cccc(Nc3ncc(Cl)c(-c4c[nH]c5ccccc45)n3)c2)nc1 [compound 1023] | – | – | IC50 [1]: 500 to 5000 nM

Source: patent US10106526B2, “Inhibitors of cyclin-dependent kinase 7 (CDK7)” (SYROS PHARMACEUTICALS, INC., priority 2014, dated 2018)
